Measurements published in patent US9840478B2 (MERCK SHARP & DOHME CORP., priority 2013, dated 2017).
pIC50: −log10 of the molar value.

System: HIV-1 (H9IIIB strain)
Assay: Cell-based HIV infection assay using a reporter (Cell-Based), MT4-GFP cells
Details: Human immunodeficiency virus 1, MT4-GFP cells infected with HIV-1 H9IIIB; 50% normal human serum; mean of at least two independent experiments; read-out: Cell-based IP
Summary of the method: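 MT4-GFP cells (HIV LTR-driven GFP) infected 24 h with HIV-1 H9IIIB at low MOI, then washed and plated with compounds in RPMI + 50% normal human serum, 0.4% DMSO final. Green cells counted at 24 and 48 h; R0 = 48 h/24 h ratio, inhibition normalized to DMSO and triple-drug control; IC50 from 4-parameter fit.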

Point of comparison: `COC(=O)N[C@H](C(=O)Nc1cccc(F)c1CC[C@H]1CNC[C@@H](C)N1S(=O)(=O)c1ccccc1)[C@@H](c1ccc(F)cc1)C1CCOCC1` [Example 103, (βR)-4-fluoro-N-(3-fluoro-2-{2-[(2S,6R)-6-methyl-1-(phenylsulfonyl)piperazin-2-yl]ethyl}phenyl)-Nα-(methoxycarbonyl)-β-(tetrahydro-2H-pyran-4-yl)-L-phenylalaninamide], pIC50 8.07. Against it:
- COc1ccc(S(=O)(=O)N2[C@@H](CCc3c(F)cccc3NC(=O)[C@@H](N)[C@@H](c3ccc(Cl)cc3)C(C)C)CNC[C@@H]2C)cc1 [Example 124, (βR)-4-chloro-N-[3-fluoro-2-(2-{(2S,6S)-1-[(4-methoxyphenyl)sulfonyl]-6-methylpiperazin-2-yl}ethyl)phenyl]-β-(1-methylethyl)-L-phenylalaninamide] — 0.87 log units lower, 7.20
- C[C@@H]1CNC[C@H](CCc2c(F)cccc2NC(=O)[C@@H](N)[C@@H](c2ccc(F)cc2)c2cc(F)cc(F)c2)N1S(=O)(=O)c1ccc(OC(F)(F)F)cc1 [Example 255, (βS)-β-(3,5-difluorophenyl)-4-fluoro-N-(3-fluoro-2-{2-[(2S,6R)-6-methyl-1-{[4-(trifluoromethoxy)phenyl]sulfonyl}piperazin-2-yl]ethyl}phenyl)-L-phenylalaninamide] — 0.84 log units lower, 7.23
- COC(=O)N[C@H](C(=O)Nc1cccc(F)c1CC[C@H]1CNC[C@H](C)N1S(=O)(=O)c1ccccc1Cl)C(c1cccc(F)c1)c1cccc(F)c1 [Example 138, N-[2-(2-{(2S,6S)-1-[(2-chlorophenyl)sulfonyl]-6-methylpiperazin-2-yl}ethyl)-3-fluorophenyl]-3-fluoro-β-(3-fluorophenyl)-Nα-(methoxycarbonyl)-L-phenylalaninamide] — 1.25 log units lower, 6.82
- C[C@@H]1CNC[C@H](CCc2c(F)cncc2NC(=O)[C@@H](N)[C@@H](c2ccc(Cl)cc2)C2CCOCC2)N1S(C)(=O)=O [Example 182, (βR)-4-chloro-N-(5-fluoro-4-{2-[(2S,6R)-6-methyl-1-(methylsulfonyl)piperazin-2-yl]ethyl}pyridin-3-yl)-β-(tetrahydro-2H-pyran-4-yl)-L-phenylalaninamide] — 1.18 log units lower, 6.89
- COC(=O)N[C@H](C(=O)Nc1cncc(F)c1CC[C@H]1CNC[C@@H](C)N1S(=O)(=O)c1ccccc1)[C@@H](c1ccc(Cl)cc1)C(C)C [Example 17, (βR)-4-chloro-N-(5-fluoro-4-{2-[(2S,6R)-6-methyl-1-(phenylsulfonyl)piperazin-2-yl]ethyl}pyridin-3-yl)-Nα-(methoxycarbonyl)-β-(1-methylethyl)-L-phenylalaninamide] — 0.29 log units higher, 8.36
- COC(=O)N[C@H](C(=O)Nc1cccc(F)c1CC[C@H]1CNC[C@H](C)N1S(=O)(=O)c1ccccc1)[C@@H](c1cccc(Cl)c1)C(C)C [Example 209, (βR)-3-chloro-N-(3-fluoro-2-{2-[(2S,6S)-6-methyl-1-(phenylsulfonyl)piperazin-2-yl]ethyl}phenyl)-Nα-(methoxycarbonyl)-β-(1-methylethyl)-L-phenylalaninamide] — 0.96 log units lower, 7.11
- COC(=O)N[C@H](C(=O)Nc1cccc(F)c1CC[C@H]1CNC[C@H](C)N1S(=O)(=O)c1ccc(OC)cc1)[C@@H](c1cccc(Cl)c1)C(C)C [Example 250, (βR)-3-chloro-N-[3-fluoro-2-(2-{(2S,6S)-1-[(4-methoxyphenyl)sulfonyl]-6-methylpiperazin-2-yl}ethyl)phenyl]-Nα-(methoxycarbonyl)-β-(1-methylethyl)-L-phenylalaninamide] — 0.60 log units lower, 7.47
- COC(=O)N[C@H](C(=O)Nc1cccc(F)c1CC[C@H]1CNC[C@H](C)N1S(=O)(=O)c1cccc(F)c1)[C@@H](c1ccc(F)cc1)c1cc(F)cc(F)c1 [Example 107, (βS)-β-(3,5-difluorophenyl)-4-fluoro-N-[3-fluoro-2-(2-{(2S,6S)-1-[(3-fluorophenyl)sulfonyl]-6-methylpiperazin-2-yl}ethyl)phenyl]-Nα-(methoxycarbonyl)-L-phenylalaninamide] — 1.25 log units lower, 6.82
- C[C@@H]1CNC[C@H](CCc2c(F)cncc2NC(=O)[C@@H](N)[C@@H](c2ccc(F)cc2)c2cc(F)cc(F)c2)N1S(=O)(=O)c1ccccc1 [Example 13, (βS)-β-(3,5-difluorophenyl)-4-fluoro-N-(5-fluoro-4-{2-[(2S,6R)-6-methyl-1-(phenylsulfonyl)piperazin-2-yl]ethyl}pyridin-3-yl)-L-phenylalaninamide] — 0.37 log units lower, 7.70
- COC(=O)N[C@H](C(=O)Nc1cccc(F)c1CC[C@H]1CNC[C@H](C)N1S(=O)(=O)c1ccccc1)[C@@H](c1ccc(Cl)cc1)c1cccc(F)c1 [Example 185, (βS)-4-chloro-N-(3-fluoro-2-{2-[(2S,6S)-6-methyl-1-(phenylsulfonyl)piperazin-2-yl]ethyl}phenyl)-β-(3-fluorophenyl)-Nα-(methoxycarbonyl)-L-phenylalaninamide] — 0.52 log units lower, 7.55
- COC(=O)N[C@H](C(=O)Nc1cncc(F)c1CC[C@H]1CNCCN1S(=O)(=O)c1ccccc1)[C@@H](c1ccc(Cl)cc1)c1cc(F)cc(F)c1 [Example 57, (βS)-4-chloro-β-(3,5-difluorophenyl)-N-(5-fluoro-4-{2-[(2S)-1-(phenylsulfonyl)piperazin-2-yl]ethyl}pyridin-3-yl)-Nα-(methoxycarbonyl)-L-phenylalaninamide] — within 0.2 log units, 8.11
- COC(=O)N[C@H](C(=O)Nc1cncc(F)c1CC[C@H]1CNC[C@H](C)N1S(C)(=O)=O)[C@@H](c1ccc(F)cc1)c1cc(F)cc(F)c1 [Example 190, (βS)-β-(3,5-difluorophenyl)-4-fluoro-N-(5-fluoro-4-{2-[(2S,6S)-6-methyl-1-(methylsulfonyl)piperazin-2-yl]ethyl}pyridin-3-yl)-Nα-(methoxycarbonyl)-L-phenylalaninamide] — within 0.2 log units, 7.89
- C[C@H]1CNC[C@H](CCc2c(F)cccc2NC(=O)[C@@H](N)[C@@H](c2ccc(Cl)cc2)C2CCOCC2)N1S(=O)(=O)c1ccccc1 [Example 131, (βR)-4-chloro-N-(3-fluoro-2-{2-[(2S,6S)-6-methyl-1-(phenylsulfonyl)piperazin-2-yl]ethyl}phenyl)-β-(tetrahydro-2H-pyran-4-yl)-L-phenylalaninamide] — 0.30 log units lower, 7.77
- CC(Oc1ccccc1)C(=O)N1CCNC[C@@H]1CCc1c(F)cncc1NC(=O)C[C@@H](c1ccc(F)cc1)c1cc(F)cc(F)c1 (stereo partly drawn) [Example 347, (3S)-3-(3,5-difluorophenyl)-N-(5-fluoro-4-{2-[(2S)-1-(2-phenoxypropanoyl)piper-azin-2-yl]ethyl}pyridin-3-yl)-3-(4-fluorophenyl)propanamide] — 0.83 log units lower, 7.24
- CCOC(=O)c1nc(-c2ccc(S(=O)(=O)N3CCNC[C@@H]3CCc3c(F)cncc3NC(=O)C[C@@H](c3ccc(F)cc3)c3cc(F)cc(F)c3)s2)no1 [Example 312, ethyl 3-[5-({(2S)-2-[2-(3-{[(3S)-3-(3,5-difluorophenyl)-3-(4-fluorophenyl)propanoyl]amino}-5-fluoropyridin-4-yl)ethyl]piperazin-1-yl}sulfonyl)thiophen-2-yl]-1,2,4-oxadiazole-5-carboxylate] — 1.22 log units lower, 6.85
- COC(=O)N[C@H](C(=O)Nc1cccc(F)c1CC[C@H]1CNC[C@H](C)N1S(=O)(=O)c1ccccc1)[C@@H](c1cc(F)cc(F)c1)C1CCOCC1 [Example 296, (βR)-3,5-difluoro-N-(3-fluoro-2-{2-[(2S,6S)-6-methyl-1-(phenylsulfonyl)piperazin-2-yl]ethyl}phenyl)-Nα-(methoxycarbonyl)-β-(tetrahydro-2H-pyran-4-yl)-L-phenylalaninamide] — within 0.2 log units, 8.00
- C[C@@H]1CNC[C@H](CCc2c(F)cncc2NC(=O)[C@@H](N)[C@@H](c2ccc(F)cc2)c2cc(F)cc(F)c2)N1S(=O)(=O)c1ccc(OC(F)(F)F)cc1 [Example 227, (βS)-β-(3,5-difluorophenyl)-4-fluoro-N-(5-fluoro-4-{2-[(2S,6R)-6-methyl-1-{[4-(trifluoromethoxy)phenyl]sulfonyl}piperazin-2-yl]ethyl}pyridin-3-yl)-L-phenylalaninamide] — 0.43 log units lower, 7.64
- C[C@H]1CNC[C@H](CCc2c(F)cccc2NC(=O)[C@@H](N)[C@@H](c2ccc(F)cc2)C2CCOCC2)N1S(=O)(=O)c1ccccc1 [Example 102, (βR)-4-fluoro-N-(3-fluoro-2-{2-[(2S,6S)-6-methyl-1-(phenylsulfonyl)piperazin-2-yl]ethyl}phenyl)-β-(tetrahydro-2H-pyran-4-yl)-L-phenylalaninamide] — 0.35 log units lower, 7.72
- O=C(C[C@@H](c1ccc(F)cc1)c1cc(F)cc(F)c1)Nc1cncc(F)c1CC[C@H]1CNCCN1S(=O)(=O)N1CCC(F)CC1 [Example 331, (3S)-3-(3,5-difluorophenyl)-N-[5-fluoro-4-(2-{(2S)-1-[(4-fluoropiperidin-1-yl)sulfonyl]piperazin-2-yl}ethyl)pyridin-3-yl]-3-(4-fluorophenyl)propanamide] — 0.35 log units lower, 7.72
- O=C(CC1CC1)N[C@H](C(=O)Nc1cncc(F)c1CC[C@H]1CNCCN1S(=O)(=O)C1CC1)[C@@H](c1ccc(F)cc1)c1cc(F)cc(F)c1 [Example 82, (βS)-Nα-(cyclopropylacetyl)-N-(4-{2-[(2S)-1-(cyclopropylsulfonyl)piperazin-2-yl]ethyl}-5-fluoropyridin-3-yl)-3,5-difluoro-β-(4-fluorophenyl)-L-phenylalaninamide] — 0.60 log units lower, 7.47
- CC(C)(C)c1ccc(OCC(=O)N2CCNC[C@@H]2CCc2c(F)cncc2NC(=O)C[C@@H](c2ccc(F)cc2)c2cc(F)cc(F)c2)cc1 [Example 349, (3S)-N-[4-(2-{(2S)-1-[(4-tert-butylphenoxy)acetyl]pipe-razin-2-yl}ethyl)-5-fluoropyridin-3-yl]-3-(3,5-difluorophenyl)-3-(4-fluorophenyl)propanamide] — 2.25 log units lower, 5.82
- C[C@H]1CNC[C@H](CCc2c(F)cncc2NC(=O)[C@@H](N)[C@@H](c2ccc(Cl)cc2)c2cccc(F)c2)N1S(=O)(=O)C1CC1 [Example 166, (βS)-4-chloro-N-(4-{2-[(2S,6S)-1-(cyclopropylsulfonyl)-6-methylpiperazin-2-yl]ethyl}-5-fluoropyridin-3-yl)-β-(3-fluorophenyl)-L-phenylalaninamide] — 0.53 log units lower, 7.54
